# Test results taken from ChEMBL document CHEMBL5390254, “Discovery and Optimization of Novel hDHODH Inhibitors for the Treatment of Inflammatory Bowel Disease” (J Med Chem, 2023).
# The source made the active and inactive calls. The rule behind the calls is not given here.
# Key:
# [1] = 1-octanol/water partition coefficient, logP of the compound at 2 mg by UPLC analysis; format: physicochemical
# [2] = Acute toxicity in BALB/c mouse assessed as changes in urea level in serum at 1000 mg/kg,po and measured after 14 days by Biochemistry analysis; format: organism-based; details: in vivo, 336 h, time 14 day
# [3] = Metabolic stability in human liver microsomes assessed as intrinsic clearance at 3 uM incubated upto 90 mins in presence of NADPH by LC-MS/MS analysis; format: ADME, Microsome; details: read-out: CLH
# [4] = Metabolic stability in mouse liver microsomes assessed as half life at 3 uM incubated upto 90 mins in presence of NADPH by LC-MS/MS analysis; format: ADME, Microsome
# Mus musculus [5] = experiment: Anti-inflammatory activity against DSS-induced acute ulcerative colitis in C57BL/6 mouse model assessed as decrease in IL-1beta mRNA expression level in colon at 100 mg/kg, po QD for 6 days by RT-PCR analysis; format: functional, organism-based; details: time 6.0 day
# Mus musculus [6] = experiment: Anti-inflammatory activity against DSS-induced acute ulcerative colitis in C57BL/6 mouse model assessed as decrease in IL-1beta production in colon at 100 mg/kg, po QD for 6 days by ELISA; format: functional, organism-based; details: time 6.0 day
# [7] = Acute toxicity in BALB/c mouse assessed as tissue damage in liver at 1000 mg/kg,po and measured after 14 days by hematoxylin and eosin staining based microscopy; format: organism-based; details: in vivo, 336 h, time 14 day
# [8] = Acute toxicity in BALB/c mouse assessed as tissue damage in spleen at 1000 mg/kg,po and measured after 14 days by hematoxylin and eosin staining based microscopy; format: organism-based; details: in vivo, 336 h, time 14 day
# [9] = Acute toxicity in BALB/c mouse assessed as changes in hematocrit level in blood at 1000 mg/kg,po and measured after 14 days by hematology test; format: organism-based; details: in vivo, 336 h, time 14 day
# [10] = Acute toxicity in BALB/c mouse assessed as changes in ALP level in serum at 1000 mg/kg,po and measured after 14 days by Biochemistry analysis; format: organism-based; details: in vivo, 336 h, time 14 day
# [11] = Metabolic stability in rat liver microsomes assessed as intrinsic clearance at 3 uM incubated upto 90 mins in presence of NADPH by LC-MS/MS analysis; format: ADME, Microsome; details: read-out: CLH
# [12] = Acute toxicity in BALB/c mouse assessed as death at 1000 mg/kg,po and measured for 14 days; format: organism-based; details: in vivo, 336 h, time 14 day
# [13] = Metabolic stability in mouse liver microsomes assessed as intrinsic clearance at 3 uM incubated upto 90 mins in presence of NADPH by LC-MS/MS analysis; format: ADME, Microsome; details: read-out: CLH
# [14] = Acute toxicity in BALB/c mouse assessed as changes in AST level in serum at 1000 mg/kg,po and measured after 14 days by Biochemistry analysis; format: organism-based; details: in vivo, 336 h, time 14 day
# Mus musculus [15] = experiment: Anti-inflammatory activity against DSS-induced acute ulcerative colitis in C57BL/6 mouse model assessed as decrease in IL-6 production in colon at 100 mg/kg, po QD for 6 days by ELISA; format: functional, organism-based; details: time 6.0 day
# [16] = Acute toxicity in po dosed BALB/c mouse assessed as maximum tolerate dose; format: organism-based; details: in vivo
# [17] = Acute toxicity in BALB/c mouse assessed as changes in ALB level in serum at 1000 mg/kg,po and measured after 14 days by Biochemistry analysis; format: organism-based; details: in vivo, 336 h, time 14 day
# [18] = Acute toxicity in BALB/c mouse assessed as changes in UA level in serum at 1000 mg/kg,po and measured after 14 days by Biochemistry analysis; format: organism-based; details: in vivo, 336 h, time 14 day
# [19] = Acute toxicity in BALB/c mouse assessed as changes in general health status at 1000 mg/kg,po and measured for 14 days; format: organism-based; details: in vivo, 336 h, time 14 day
# [20] = Acute toxicity in BALB/c mouse assessed as changes in WBC level in blood at 1000 mg/kg,po and measured after 14 days by hematology test; format: organism-based; details: in vivo, 336 h, time 14 day
# [21] = Acute toxicity in BALB/c mouse assessed as changes in RBC level in blood at 1000 mg/kg,po and measured after 14 days by hematology test; format: organism-based, Erythrocyte; details: in vivo, 336 h, time 14 day
# [22] = Acute toxicity in BALB/c mouse assessed as changes in TP level in serum at 1000 mg/kg,po and measured after 14 days by Biochemistry analysis; format: organism-based; details: in vivo, 336 h, time 14 day
# [23] = Acute toxicity in BALB/c mouse assessed as tissue damage in lung at 1000 mg/kg,po and measured after 14 days by hematoxylin and eosin staining based microscopy; format: organism-based; details: in vivo, 336 h, time 14 day
# [24] = Acute toxicity in BALB/c mouse assessed as changes in lymph level in blood at 1000 mg/kg,po and measured after 14 days by hematology test; format: organism-based; details: in vivo, 336 h, time 14 day
# [25] = Acute toxicity in BALB/c mouse assessed as changes in neutrophil level in blood at 1000 mg/kg,po and measured after 14 days by hematology test; format: organism-based; details: in vivo, 336 h, time 14 day
# [26] = Acute toxicity in BALB/c mouse assessed as changes in LDH level in serum at 1000 mg/kg,po and measured after 14 days by Biochemistry analysis; format: organism-based; details: in vivo, 336 h, time 14 day
# [27] = Acute toxicity in BALB/c mouse assessed as tissue damage in kidney at 1000 mg/kg,po and measured after 14 days by hematoxylin and eosin staining based microscopy; format: organism-based; details: in vivo, 336 h, time 14 day
# Mus musculus [28] = experiment: Anti-inflammatory activity against DSS-induced acute ulcerative colitis in C57BL/6 mouse model assessed as decrease in body weight loss at 100 mg/kg, po QD for 6 days (Rvb= 25.6%); format: functional; set-up: scale not given: the % may be the effect or the level left; details: time 6 day
# [29] = Acute toxicity in BALB/c mouse assessed as changes in CK level in serum at 1000 mg/kg,po and measured after 14 days by Biochemistry analysis; format: organism-based; details: in vivo, 336 h, time 14 day
# Mus musculus [30] = experiment: Anti-inflammatory activity against DSS-induced acute ulcerative colitis in C57BL/6 mouse model assessed as decrease in IL-6 mRNA expression level in colon at 100 mg/kg, po QD for 6 days by RT-PCR analysis; format: functional, organism-based; details: time 6.0 day
# Mus musculus [31] = experiment: Anti-inflammatory activity against DSS-induced acute ulcerative colitis in C57BL/6 mouse model assessed as decrease in DAI score at 100 mg/kg, po QD for 6 days; format: functional, organism-based; details: time 6.0 day
# [32] = Metabolic stability in rat liver microsomes assessed as half life at 3 uM incubated upto 90 mins in presence of NADPH by LC-MS/MS analysis; format: ADME, Microsome
# Mus musculus [33] = experiment: Anti-inflammatory activity against DSS-induced acute ulcerative colitis in C57BL/6 mouse model assessed as decrease in IL-17 mRNA expression level in colon at 100 mg/kg, po QD for 6 days by RT-PCR analysis; format: functional, organism-based; details: time 6.0 day
# Mus musculus [34] = experiment: Anti-inflammatory activity against DSS-induced acute ulcerative colitis in C57BL/6 mouse model assessed as decrease in IL-17 production in colon at 100 mg/kg, po QD for 6 days by ELISA; format: functional, organism-based; details: time 6.0 day
# [35] = Acute toxicity in BALB/c mouse assessed as tissue damage in heart at 1000 mg/kg,po and measured after 14 days by hematoxylin and eosin staining based microscopy; format: organism-based; details: in vivo, 336 h, time 14 day
# [36] = Acute toxicity in BALB/c mouse assessed as changes in CREA level in serum at 1000 mg/kg,po and measured after 14 days by Biochemistry analysis; format: organism-based; details: in vivo, 336 h, time 14 day
# [37] = Acute toxicity in BALB/c mouse assessed as changes in hemoglobin level in blood at 1000 mg/kg,po and measured after 14 days by hematology test; format: organism-based; details: in vivo, 336 h, time 14 day
# [38] = Acute toxicity in BALB/c mouse assessed as changes in ALT level in serum at 1000 mg/kg,po and measured after 14 days by Biochemistry analysis; format: organism-based; details: in vivo, 336 h, time 14 day
# Mus musculus [39] = experiment: Anti-inflammatory activity against DSS-induced acute ulcerative colitis in C57BL/6 mouse model assessed as decrease in colon length shortening at 100 mg/kg, po QD for 6 days (Rvb= 5.5cm); format: functional; details: time 6 day
# [40] = Acute toxicity in BALB/c mouse assessed as changes in platelet count in blood at 1000 mg/kg,po and measured after 14 days by hematology test; format: organism-based; details: in vivo, 336 h, time 14 day
# [41] = Metabolic stability in human liver microsomes assessed as half life at 3 uM incubated upto 90 mins in presence of NADPH by LC-MS/MS analysis; format: ADME, Microsome
# [42] = Acute toxicity in BALB/c mouse assessed as body weight loss at 1000 mg/kg,po and measured for 14 days; format: organism-based; details: in vivo, 336 h, time 14 day
# Mus musculus [43] = experiment: Anti-inflammatory activity against DSS-induced acute ulcerative colitis in C57BL/6 mouse model assessed as decrease in colon tissue damage score at 100 mg/kg, po QD for 6 days relative to DSS group; format: functional; set-up: scale not given: the % may be the effect or the level left; details: time 6 day
compound,measurement,setting,value
Nc1nc(-c2cn(Cc3c(F)cccc3F)c3ncccc23)ncc1C1CC1,logP,[1],5.1
Fc1cccc(Cl)c1Cn1cc(-c2ncc(C3CC3)cn2)c2cccnc21,Activity,[2],Non-Toxic
same,CLint scaled at 3 µM,[3],190 mL/min/kg
same,half-life at 3 µM,[4],7.9 min
same,Activity,Mus musculus [5],Active
same,Activity,Mus musculus [6],Active
same,Activity,[7],Non-Toxic
same,Activity,[8],Non-Toxic
same,Activity,[9],Non-Toxic
same,Activity,[10],Non-Toxic
same,CLint scaled at 3 µM,[11],150 mL/min/kg
same,Activity,[12],Non-Toxic
same,CLint scaled at 3 µM,[13],693 mL/min/kg
same,Activity,[14],Non-Toxic
same,Activity,Mus musculus [15],Active
same,MTD,[16],1000 mg/kg
same,Activity,[17],Non-Toxic
same,Activity,[18],Non-Toxic
same,Activity,[19],Non-Toxic
same,Activity,[20],Non-Toxic
same,Activity,[21],Non-Toxic
same,Activity,[22],Non-Toxic
same,Activity,[23],Non-Toxic
same,Activity,[24],Non-Toxic
same,Activity,[25],Non-Toxic
same,Activity,[26],Non-Toxic
same,Activity,[27],Non-Toxic
same,logP,[1],5.3
same,Activity,Mus musculus [28],17.6%
same,Activity,[29],Non-Toxic
same,Activity,Mus musculus [30],Active
same,Activity,Mus musculus [31],Active
same,half-life at 3 µM,[32],16.5 min
same,Activity,Mus musculus [33],Active
same,Activity,Mus musculus [34],Active
same,Activity,[35],Non-Toxic
same,Activity,[36],Non-Toxic
same,Activity,[37],Non-Toxic
same,Activity,[38],Non-Toxic
same,Activity,Mus musculus [39],6.1 cm
same,Activity,[40],Non-Toxic
same,half-life at 3 µM,[41],9.2 min
same,Activity,[42],Non-Toxic
same,Activity,Mus musculus [43],27.27%
Nc1nc(-c2nn(Cc3ccccc3F)c3ncccc23)ncc1C1CC1,CLint scaled at 3 µM,[3],45.7 mL/min/kg
same,half-life at 3 µM,[4],30.8 min
same,CLint scaled at 3 µM,[11],101 mL/min/kg
same,CLint scaled at 3 µM,[13],177 mL/min/kg
same,half-life at 3 µM,[32],24.5 min
same,half-life at 3 µM,[41],38.1 min
